Test results taken from patent publication US8748481B2, “Method for treating gastrointestinal disorder” (Sucampo AG, priority 2004, dated 2014).
Marks after values point to notes of the source that are not given here.

Tested on: subjects with irritable bowel syndrome (IBS)
Assay: IBS QOL questionnaire, 12-week double-blind randomized study (Example 7)
Format: in vivo, human
Design: key to IBS QOL Overall scaled score, Mean / IBS QOL Dysphoria scaled score, Mean / IBS QOL Interference with Activity scaled score, Mean / IBS QOL Body Image scaled score, Mean / IBS QOL Health Worry scaled score, Mean / IBS QOL Food Avoidance scaled score, Mean / IBS QOL Social Reaction scaled score, Mean / IBS QOL Sexual scaled score, Mean / IBS QOL Relationship scaled score, Mean: IBS-QOL scaled score, 0–100
Settings: for IBS QOL Body Image scaled score, Mean / IBS QOL Dysphoria scaled score, Mean / IBS QOL Food Avoidance scaled score, Mean / IBS QOL Health Worry scaled score, Mean / IBS QOL Interference with Activity scaled score, Mean / IBS QOL Overall scaled score, Mean / IBS QOL Relationship scaled score, Mean / IBS QOL Sexual scaled score, Mean / IBS QOL Social Reaction scaled score, Mean: Baseline; for IBS QOL Body Image, Mean change from Baseline / IBS QOL Dysphoria, Mean change from Baseline / IBS QOL Food Avoidance, Mean change from Baseline / IBS QOL Health Worry, Mean change from Baseline / IBS QOL Interference with Activity, Mean change from Baseline / IBS QOL Overall, Mean change from Baseline / IBS QOL Relationship, Mean change from Baseline / IBS QOL Sexual, Mean change from Baseline / IBS QOL Social Reaction, Mean change from Baseline: without LOCF
Method: A 12-week, double-blind, randomized study was performed to assess the safety and efficacy of oral 16 μg, 32 μg and 48 μg (total daily dose) of compound A to subjects with irritable bowel syndrome (IBS).
The patients answered the IBS QOL questionnaire at baseline, at week 4, Week 12 and at the end of study, and Questionnaire results were scored according to the IBS QOL User's Manual (A Quality of Life Measure for Persons with Irritable Bowel Syndrome (IBS-QOL): User's Manual and Scoring Diskette for United States Version. Seattle, Wash.: University of Washington; 1997). Scaled scores were used for all analyses, and scores were calculated according to the User's Manual as follows: Scaled Score=([Sum of IBS-QOL items−lowest possible score]/Possible raw score range))×100
Changes from baseline at week 4, week 12 and at the End of Study were assessed for the mean overall score and for the mean domain scores (dysphoria, interference with activity, body image, health worry, food avoidance, social reaction, sexual, and relationship).

SMILES: CCCCC(F)(F)C(=O)CCC1C(O)CC(=O)C1CCCCCCC(=O)O (stereo not shown) [Compound A, 13,14-dihydro-15-keto-16,16-difluoro-PGE1]
- Improvement from baseline in IBS-QOL compared among dose groups (16 μg group vs. 32 μg and 48 μg groups, every specific area and QOL overall): greatest improvement
- IBS QOL Body Image scaled score, Mean (16 μg group): 41.42
- IBS QOL Dysphoria scaled score, Mean (16 μg group): 53.19
- IBS QOL Food Avoidance scaled score, Mean (16 μg group): 46.08
- IBS QOL Health Worry scaled score, Mean (16 μg group): 37.74
- IBS QOL Interference with Activity scaled score, Mean (16 μg group): 65.82
- IBS QOL Overall scaled score, Mean (16 μg group): 55.66
- IBS QOL Relationship scaled score, Mean (16 μg group): 67.81
- IBS QOL Sexual scaled score, Mean (16 μg group): 64.95
- IBS QOL Social Reaction scaled score, Mean (16 μg group): 63.97
- IBS QOL Body Image, Mean change from Baseline (16 μg/day, End of Study): 20.41**
- IBS QOL Dysphoria, Mean change from Baseline (16 μg/day, End of Study): 21.62**
- IBS QOL Food Avoidance, Mean change from Baseline (16 μg/day, End of Study): 13.95**
- IBS QOL Health Worry, Mean change from Baseline (16 μg/day, End of Study): 21.94**
- IBS QOL Interference with Activity, Mean change from Baseline (16 μg/day, End of Study): 11.95**
- IBS QOL Overall, Mean change from Baseline (16 μg/day, End of Study): 16.82**
- IBS QOL Relationship, Mean change from Baseline (16 μg/day, End of Study): 14.28**
- IBS QOL Sexual, Mean change from Baseline (16 μg/day, End of Study): 14.03**
- IBS QOL Social Reaction, Mean change from Baseline (16 μg/day, End of Study): 13.78**
- IBS QOL Body Image, Mean change from Baseline (16 μg/day, Week 4): 16.39**
- IBS QOL Dysphoria, Mean change from Baseline (16 μg/day, Week 4): 17.85**
- IBS QOL Food Avoidance, Mean change from Baseline (16 μg/day, Week 4): 13.89**
- IBS QOL Health Worry, Mean change from Baseline (16 μg/day, Week 4): 22.41**
- IBS QOL Interference with Activity, Mean change from Baseline (16 μg/day, Week 4): 10.87**
- IBS QOL Overall, Mean change from Baseline (16 μg/day, Week 4): 14.7**
- IBS QOL Relationship, Mean change from Baseline (16 μg/day, Week 4): 10.74**
- IBS QOL Sexual, Mean change from Baseline (16 μg/day, Week 4): 13.33**
- IBS QOL Social Reaction, Mean change from Baseline (16 μg/day, Week 4): 11.94**
- IBS QOL Body Image, Mean change from Baseline (16 μg/day, Week 12): 22.32**
- IBS QOL Dysphoria, Mean change from Baseline (16 μg/day, Week 12): 23.51**
- IBS QOL Food Avoidance, Mean change from Baseline (16 μg/day, Week 12): 15.28**
- IBS QOL Health Worry, Mean change from Baseline (16 μg/day, Week 12): 23.81**
- IBS QOL Interference with Activity, Mean change from Baseline (16 μg/day, Week 12): 13.95**
- IBS QOL Overall, Mean change from Baseline (16 μg/day, Week 12): 18.54**
- IBS QOL Relationship, Mean change from Baseline (16 μg/day, Week 12): 15.47**
- IBS QOL Sexual, Mean change from Baseline (16 μg/day, Week 12): 16.67**
- IBS QOL Social Reaction, Mean change from Baseline (16 μg/day, Week 12): 14.58**
- IBS QOL Body Image scaled score, Mean (32 μg group): 43.37
- IBS QOL Dysphoria scaled score, Mean (32 μg group): 59.69
- IBS QOL Food Avoidance scaled score, Mean (32 μg group): 52.21
- IBS QOL Health Worry scaled score, Mean (32 μg group): 44.38
- IBS QOL Interference with Activity scaled score, Mean (32 μg group): 69.82
- IBS QOL Overall scaled score, Mean (32 μg group): 60.14
- IBS QOL Relationship scaled score, Mean (32 μg group): 70.23
- IBS QOL Sexual scaled score, Mean (32 μg group): 68.62
- IBS QOL Social Reaction scaled score, Mean (32 μg group): 66.84
- IBS QOL Body Image, Mean change from Baseline (32 μg/day, End of Study): 17.47**
- IBS QOL Dysphoria, Mean change from Baseline (32 μg/day, End of Study): 14.77**
- IBS QOL Food Avoidance, Mean change from Baseline (32 μg/day, End of Study): 10.79**
- IBS QOL Health Worry, Mean change from Baseline (32 μg/day, End of Study): 17.61**
- IBS QOL Interference with Activity, Mean change from Baseline (32 μg/day, End of Study): 8.2**
- IBS QOL Overall, Mean change from Baseline (32 μg/day, End of Study): 12.58**
- IBS QOL Relationship, Mean change from Baseline (32 μg/day, End of Study): 10.79**
- IBS QOL Sexual, Mean change from Baseline (32 μg/day, End of Study): 10.23**
- IBS QOL Social Reaction, Mean change from Baseline (32 μg/day, End of Study): 11.08**
- IBS QOL Body Image, Mean change from Baseline (32 μg/day, Week 4): 15.28**
- IBS QOL Dysphoria, Mean change from Baseline (32 μg/day, Week 4): 14.58**
- IBS QOL Food Avoidance, Mean change from Baseline (32 μg/day, Week 4): 8.33*
- IBS QOL Health Worry, Mean change from Baseline (32 μg/day, Week 4): 16.9**
- IBS QOL Interference with Activity, Mean change from Baseline (32 μg/day, Week 4): 7.04*
- IBS QOL Overall, Mean change from Baseline (32 μg/day, Week 4): 11.25**
- IBS QOL Relationship, Mean change from Baseline (32 μg/day, Week 4): 7.64*
- IBS QOL Sexual, Mean change from Baseline (32 μg/day, Week 4): 8.68**
- IBS QOL Social Reaction, Mean change from Baseline (32 μg/day, Week 4): 9.9**
- IBS QOL Body Image, Mean change from Baseline (32 μg/day, Week 12): 17.99**
- IBS QOL Dysphoria, Mean change from Baseline (32 μg/day, Week 12): 15.25**
- IBS QOL Food Avoidance, Mean change from Baseline (32 μg/day, Week 12): 11.36**
- IBS QOL Health Worry, Mean change from Baseline (32 μg/day, Week 12): 19.44**
- IBS QOL Interference with Activity, Mean change from Baseline (32 μg/day, Week 12): 9.42**
- IBS QOL Overall, Mean change from Baseline (32 μg/day, Week 12): 13.08**
- IBS QOL Relationship, Mean change from Baseline (32 μg/day, Week 12): 9.09*
- IBS QOL Sexual, Mean change from Baseline (32 μg/day, Week 12): 10.98**
- IBS QOL Social Reaction, Mean change from Baseline (32 μg/day, Week 12): 10.8**
- IBS QOL Body Image scaled score, Mean (48 μg group): 45.69
- IBS QOL Dysphoria scaled score, Mean (48 μg group): 56.81
- IBS QOL Food Avoidance scaled score, Mean (48 μg group): 50.37
- IBS QOL Health Worry scaled score, Mean (48 μg group): 44.07
- IBS QOL Interference with Activity scaled score, Mean (48 μg group): 68.25
- IBS QOL Overall scaled score, Mean (48 μg group): 59.85
- IBS QOL Relationship scaled score, Mean (48 μg group): 75.18
- IBS QOL Sexual scaled score, Mean (48 μg group): 71.94
- IBS QOL Social Reaction scaled score, Mean (48 μg group): 66.81
- IBS QOL Body Image, Mean change from Baseline (48 μg/day, End of Study): 14.24**
- IBS QOL Dysphoria, Mean change from Baseline (48 μg/day, End of Study): 16.28**
- IBS QOL Food Avoidance, Mean change from Baseline (48 μg/day, End of Study): 8.33**
- IBS QOL Health Worry, Mean change from Baseline (48 μg/day, End of Study): 17.05**
- IBS QOL Interference with Activity, Mean change from Baseline (48 μg/day, End of Study): 7.97**
- IBS QOL Overall, Mean change from Baseline (48 μg/day, End of Study): 11.54**
- IBS QOL Relationship, Mean change from Baseline (48 μg/day, End of Study): 6.01**
- IBS QOL Sexual, Mean change from Baseline (48 μg/day, End of Study): 3.49
- IBS QOL Social Reaction, Mean change from Baseline (48 μg/day, End of Study): 12.06**
- IBS QOL Body Image, Mean change from Baseline (48 μg/day, Week 4): 13.24**
- IBS QOL Dysphoria, Mean change from Baseline (48 μg/day, Week 4): 17.28**
- IBS QOL Food Avoidance, Mean change from Baseline (48 μg/day, Week 4): 12.01**
- IBS QOL Health Worry, Mean change from Baseline (48 μg/day, Week 4): 19.61**
- IBS QOL Interference with Activity, Mean change from Baseline (48 μg/day, Week 4): 9.14**
- IBS QOL Overall, Mean change from Baseline (48 μg/day, Week 4): 12.43**
- IBS QOL Relationship, Mean change from Baseline (48 μg/day, Week 4): 6.87**
- IBS QOL Sexual, Mean change from Baseline (48 μg/day, Week 4): 8.46**
- IBS QOL Social Reaction, Mean change from Baseline (48 μg/day, Week 4): 8.82**
- IBS QOL Body Image, Mean change from Baseline (48 μg/day, Week 12): 17.08**
- IBS QOL Dysphoria, Mean change from Baseline (48 μg/day, Week 12): 20.83**
- IBS QOL Health Worry, Mean change from Baseline (48 μg/day, Week 12): 23.33**
- IBS QOL Interference with Activity, Mean change from Baseline (48 μg/day, Week 12): 10.95**
- IBS QOL Overall, Mean change from Baseline (48 μg/day, Week 12): 14.8**
- IBS QOL Relationship, Mean change from Baseline (48 μg/day, Week 12): 6.95**
- IBS QOL Sexual, Mean change from Baseline (48 μg/day, Week 12): 5
- IBS QOL Social Reaction, Mean change from Baseline (48 μg/day, Week 12): 14.17**
- IBS-QOL change from baseline vs. zero (all groups (16, 32, 48 μg)): significantly different from Zero
